In experiment [1] the test system is T1, periplasmic L-ASNase (PCH199 L-ASNase, type II).
T1 construct: gene ansB; native, purified from periplasm by osmotic shock (ammonium sulfate, Q-Sepharose, Superdex 200)
Briefly: Nessler ammonia assay at […] nm, non-linear Michaelis-Menten fit. Type of experiment: biochemical, Pseudomonas sp. PCH199. As to conditions: 0.1-3.0 mM substrate; standard assay 50 mM Tris-HCl pH 8.5, 37 ℃ (temperature of the kinetic run not restated).

Experiment [2] shares this test system. Briefly: Michaelis-Menten non-linear regression (assay details not told). As to conditions: 0.02-0.5 mM substrate; assay pH and temperature not stated for L-glutamine. The class given is biochemical, Pseudomonas sp. PCH199.

Usually Km stands for the substrate concentration at which the rate is half of its maximum. With `NC(=O)C[C@H](N)C(=O)O` [L-asparagine], in experiment [1], the Km was determined as 164 ± 9 µM. For `NC(=O)CC[C@H](N)C(=O)O` [L-glutamine], the Km in experiment [2] was determined as 34 µM.

(Values after article PMC9958223, “Biochemical characterization of extremozyme L-asparaginase from Pseudomonas sp. PCH199 for therapeutics” (AMB Express, 2023).)
